The test system of the assay is 349418-098-R-PDC complex spheroid growth. The assay can be described thus: Anticancer human tumor 349418-098-R-PDC patient-derived lung adenocarcinoma cell line growth inhibition [AhR]. The following applies: for viability, T/C: stronger effect = lower value. An excerpt:
Multicellular complex tumor spheroid response to aryl hydrocarbon receptor antagonists in combination with a variety of drugs and investigational agents in selected tumor cell lines
The current study was undertaken to assess response to aryl hydrocarbon receptor antagonists in combination with standard-of-care drugs and investigational agents in solid tumor complex spheroid models. Complex spheroids include a stromal component modeled by human endothelial cells (HUVEC) and fibroblasts modeled by human mesenchymal stem cells (MSCs). The concentration ranges selected for each drug and investigational agent were based upon clinically achievable concentrations if the clinical Cmax of the agent was known.
Compounds. The drugs and investigational agents: BAY 2416964 (NSC825713), GNF351 (NSC835774), CH-223191 (NSC835775), CPI-455 (NSC825282), aza-TdCyd (NSC777586), decitabine (NSC127716), belinostat (NSC758774), entinostat (NSC756642), pevonedistat (NSC761192), tazemetostat (NSC777109), talazoparib (NSC765396), olaparib (NSC753686), selinexor (NSC780203), nedisertib (M3814, NSC802822), bortezomib (NSC756655), venetoclax (NSC766270), doxorubicin (NSC123127), elimusertib (BAY189344, NSC800525), ceralasertib (AZD6738, NSC777638), TAK-243 (NSC785004), alisertib (NSC759677), etoposide (NSC141540), topotecan (NSC609699), eribulin (NSC707389), gemcitabine (NSC613327), carboplatin (NSC241240), cisplatin (NSC119875), and SN-38 (NSC673596) were obtained from the National Cancer Institute (NCI) Developmental Therapeutics Program Chemical Repository (32). The FDA-approved anticancer drug set is available from the Developmental Therapeutics Program at https://dtp.cancer.gov/organization/dscb/obtaining/available plates.htm. […] The stock solutions were prepared in dimethyl sulfoxide (DMSO, Sigma-Aldrich, St. Louis, MO, cat. D2650), except for the platinum compounds which were prepared in saline (Quality Biological, Gaithersburg, MD, cat. 114-055-101), at 800-fold the tested concentration and stored at -70 degrees C prior to their use. All drugs and investigational agents were tested over a range starting from a high concentration at or near the clinical Cmax and decreasing in half-log increments. If the clinical Cmax for an agent had not been determined, the highest concentration tested was 10 microM (Table 1).
Cell Culture. All cells were maintained in an incubator at 37 degrees C and 5% CO2 with 95% humidity. The PDC lines were cultured according to standard operating procedures established by the NCI PDMR (https://pdmr.cancer.gov). Briefly, all PDCs were thawed and cultured in Matrigel-coated flasks prepared with a working solution of 1X Ham's F-12 nutrient mix, without supplementation (Invitrogen, Waltham, MA, cat. 11765054), 100 U/mL penicillin-streptomycin (Invitrogen, cat. 15140122), and 2.5% Matrigel (Corning Inc., Corning, NY, cat. 354248) for the first three passages. All PDCs were cultured in complete DMEM/F-12 media containing advanced DMEM/F-12 (Invitrogen, cat. 12634028), 4.9% defined fetal bovine serum, heat inactivated (HyClone Laboratories Inc., Logan, UT, cat. SH30070.03HI), 389 ng/mL hydrocortisone (Sigma-Aldrich, cat. H4001), 9.7 ng/mL human EGF recombinant protein (Invitrogen, cat. PHG0313), 23.4 microg/mL adenine (Sigma-Aldrich, cat. A2786), 97.3 U/mL penicillin-streptomycin (Invitrogen, cat. 15140122), 1.9 mM L-glutamine (Invitrogen, cat. 25030081), and 9.7 microM Y-27632 dihydrochloride (Tocris Bioscience, Bristol, United Kingdom, cat. 1254). The PDCs were cultured in complete DMEM/F12 media without 10 microM Y-27632 dihydrochloride for at least two passages prior to the screen. The established cell lines NCI-H1341 and […] were cultured in DMEM/F-12, HEPES (Invitrogen, cat. 11330032), 5% defined fetal bovine serum (HyClone Laboratories Inc., cat. SH30070.03), ITS premix universal culture supplement [insulin (5 microg/mL), transferrin (5 microg/mL), and selenious acid (5 ng/mL)] […]

Setting [1] is: curve of first compound, second compound 0.1 µM.
[2] abbreviates: curve of first compound, second compound 0.316 µM.
Where [3] appears, read: curve of first compound, second compound 1 µM.
The mark [4] stands for this setting: curve of first compound, second compound 3.16 µM.
The mark [5] stands for this setting: curve of first compound, second compound 10 µM.
The mark [6] stands for this setting: second compound 0.1 µM, first compound 0.0316 µM.
Setting [7] is: second compound 0.1 µM, first compound 0.1 µM.
Where [8] appears, read: second compound 0.1 µM, first compound 0.316 µM.
The mark [9] stands for this setting: second compound 0.1 µM, first compound 1 µM.
Setting [10] is: second compound 0.316 µM, first compound 0.0316 µM.
[11] abbreviates: second compound 0.316 µM, first compound 0.1 µM.
[12] abbreviates: second compound 0.316 µM, first compound 0.316 µM.
[13] abbreviates: second compound 0.316 µM, first compound 1 µM.
[14] abbreviates: second compound 1 µM, first compound 0.0316 µM.
[15] abbreviates: second compound 1 µM, first compound 0.1 µM.
The mark [16] stands for this setting: second compound 1 µM, first compound 0.316 µM.
Where [17] appears, read: second compound 1 µM, first compound 1 µM.
The mark [18] stands for this setting: second compound 3.16 µM, first compound 0.0316 µM.
The mark [19] stands for this setting: second compound 3.16 µM, first compound 0.1 µM.
Setting [20] is: second compound 3.16 µM, first compound 0.316 µM.
Where [21] appears, read: second compound 3.16 µM, first compound 1 µM.
[22] abbreviates: second compound 10 µM, first compound 0.0316 µM.
Where [23] appears, read: second compound 10 µM, first compound 0.1 µM.
Where [24] appears, read: second compound 10 µM, first compound 0.316 µM.
Where [25] appears, read: second compound 10 µM, first compound 1 µM.

Where “and” joins values, the source holds several entries; their conditions need not be identical. Equal entries are not always repeated.
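Further: spheroids exposed to agents for seven days before luminescence viability read.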
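Wherever viability, T/C is given: spheroids also contain HUVEC endothelial cells and human MSC stroma.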

For orientation: viability, T/C means the ratio of treated to control. As usually defined, the IC50 is the point on the concentration scale where inhibition reaches its midpoint. Consider `CC(C)c1c(-c2ccccc2)nc2c(C#N)c[nH]n2c1=O`, for which the viability, T/C runs as follows: (compound 0.0316 µM) 112% and 92.6% and 89.1%; (compound 0.1 µM) 106% and 83.2% and 76.1%; (compound 0.316 µM) 100% and 78.1% and 72%; (compound 1 µM) 103% and 77.8% and 82.3%; (compound 3.16 µM) 108% and 86.8% and 85.3%; (compound 10 µM) 91.6% and 86.8% and 79.7%. Moreover, for the setting “curve of compound”, the half-inhibitory concentration (IC50) is over 10000 nM.

`CC1COCCN1c1cc(C2(S(C)(=N)=O)CC2)nc(-c2ccnc3[nH]ccc23)n1` (centres undefined): the viability, T/C was 101% and 113% and 96.1% (compound 0.0316 µM); 102% and 81.9% and 78.6% (compound 0.1 µM); 102% and 125% and 74.4% (compound 0.316 µM); 100% and 62.9% and 65.1% (compound 1 µM); 73% and 40.4% and 28.4% (compound 3.16 µM); 16.1% and 13.5% and 12.1% (compound 10 µM). The IC50 (curve of compound) is 5040 nM and 1510 nM and 1460 nM.

As for `COc1ccc([C@@H](O)c2cc(-c3ncnc4cc(N5CCOCC5)ccc34)c(F)cc2Cl)nn1`, the viability, T/C (compound 0.0316 µM) is 97.4% and 104% and 117%; the viability, T/C (compound 0.1 µM) was 112% and 77.3% and 98.6%; the viability, T/C (compound 0.316 µM) was 101% and 83.1% and 51.5%; the viability, T/C (compound 1 µM) is 84.5% and 66.4% and 65.3%; the viability, T/C (compound 3.16 µM) is 57.2% and 33.5% and 38.6%; the viability, T/C (compound 10 µM) was 16.7% and 11.3% and 12.6%. Besides, under “curve of compound”, the IC50 was 3790 nM and 1770 nM and 1160 nM.

As to `Cc1cncc(-c2nc(NCCc3c[nH]c4ccccc34)c3ncn(C(C)C)c3n2)c1`, the viability, T/C was 97.7% [middle of 20 runs] (compound 0.1 µM), 93.4% [middle of 20 runs] (compound 0.316 µM) and 2.04% [middle of 19 runs] (compound 10 µM).

For `COc1cccc2c1C(=O)c1c(O)c3c(c(O)c1C2=O)CC(O)(C(=O)CO)CC3OC1CC(N)C(O)C(C)O1` (centres undefined) + CC(CO)NC(=O)c1cc(-c2ccc(Cl)cc2)nn(-c2cnn(C)c2)c1=O, the IC50 under setting [1] was under 31.6 nM; the IC50 under setting [2] was under 31.6 nM; the IC50 under setting [3] was under 31.6 nM; the IC50 under setting [4] was under 31.6 nM; the IC50 under setting [5] was under 31.6 nM. The viability, T/C by setting is: under setting [6], 21.8%; under setting [7], 13.4%; under setting [8], 3.76%; under setting [9], 0.59%; (second compound 0.1 µM, first compound 3.16 µM) 2.28%; (second compound 0.1 µM, first compound 10 µM) 5.15%. Moreover, the viability, T/C was 26.6% under setting [10]; 13.2% under setting [11]; 3.63% under setting [12]; 0.47% under setting [13]; 3.14% (second compound 0.316 µM, first compound 3.16 µM); 5.48% (second compound 0.316 µM, first compound 10 µM). The viability, T/C under setting [14] is 25%; the viability, T/C under setting [15] was 14.7%; the viability, T/C under setting [16] is 3.05%; the viability, T/C under setting [17] was 0.52%; the viability, T/C (second compound 1 µM, first compound 3.16 µM) is 3.58%; the viability, T/C (second compound 1 µM, first compound 10 µM) is 5.75%. Also, the viability, T/C is 19.6% under setting [18]; 14.4% under setting [19]; 2.92% under setting [20]; 0.71% under setting [21]; 2.73% (second compound 3.16 µM, first compound 3.16 µM); 5.34% (second compound 3.16 µM, first compound 10 µM). In addition, the viability, T/C is 18.5% under setting [22]; 12.3% under setting [23]; 1.49% under setting [24]; 1.33% under setting [25]; 3.87% (second compound 10 µM, first compound 3.16 µM); 6.78% (second compound 10 µM, first compound 10 µM).

As for `Nc1ncn(C2CC(O)C(CO)O2)c(=O)n1` (centres undefined) + CC(CO)NC(=O)c1cc(-c2ccc(Cl)cc2)nn(-c2cnn(C)c2)c1=O, the IC50 was 135 nM under setting [1]; 63.3 nM under setting [2]; 92.2 nM under setting [3]; 103 nM under setting [4]; 44.6 nM under setting [5]. Moreover, the viability, T/C by setting is: (second compound 0.1 µM, first compound 0.00316 µM) 101%; (second compound 0.1 µM, first compound 0.01 µM) 90.6%; under setting [6], 73.4%; under setting [7], 55.2%; under setting [8], 36.6%; under setting [9], 23.8%. In addition, the viability, T/C (second compound 0.316 µM, first compound 0.00316 µM) is 108%; the viability, T/C (second compound 0.316 µM, first compound 0.01 µM) is 106%; the viability, T/C under setting [10] is 72%; the viability, T/C under setting [11] is 35%; the viability, T/C under setting [12] was 43.1%; the viability, T/C under setting [13] is 25.7%. Further, the viability, T/C (second compound 1 µM, first compound 0.00316 µM) is 78.6%; the viability, T/C (second compound 1 µM, first compound 0.01 µM) is 67.3%; the viability, T/C under setting [14] is 67.9%; the viability, T/C under setting [15] is 41.6%; the viability, T/C under setting [16] was 43.3%; the viability, T/C under setting [17] was 28.9%. Also, the viability, T/C was 55.4% (second compound 3.16 µM, first compound 0.00316 µM); 64.9% (second compound 3.16 µM, first compound 0.01 µM); 84.4% under setting [18]; 50.6% under setting [19]; 30% under setting [20]; 26.8% under setting [21]. The viability, T/C is 51.9% (second compound 10 µM, first compound 0.00316 µM); 63.9% (second compound 10 µM, first compound 0.01 µM); 49.8% under setting [22]; 43.2% under setting [23]; 24.8% under setting [24]; 20.1% under setting [25].

Values taken from PubChem BioAssay AID1918996 (Molecular Pharmacology Branch, DTP, NCI, 2023).
